In general, IC50 refers to the concentration that gives 50% inhibition. By CC50 is commonly meant the concentration giving 50% cytotoxicity. For orientation: AC50 means the concentration at which the activity in the assay is half-maximal. One may read the EC50 as the concentration at which the effect is half-maximal. For orientation: GI50 means the concentration at which growth is held to half of that of the control.

Activity calls are given as the source filed them.

Large T antigen, sequence (P03070 whole entry): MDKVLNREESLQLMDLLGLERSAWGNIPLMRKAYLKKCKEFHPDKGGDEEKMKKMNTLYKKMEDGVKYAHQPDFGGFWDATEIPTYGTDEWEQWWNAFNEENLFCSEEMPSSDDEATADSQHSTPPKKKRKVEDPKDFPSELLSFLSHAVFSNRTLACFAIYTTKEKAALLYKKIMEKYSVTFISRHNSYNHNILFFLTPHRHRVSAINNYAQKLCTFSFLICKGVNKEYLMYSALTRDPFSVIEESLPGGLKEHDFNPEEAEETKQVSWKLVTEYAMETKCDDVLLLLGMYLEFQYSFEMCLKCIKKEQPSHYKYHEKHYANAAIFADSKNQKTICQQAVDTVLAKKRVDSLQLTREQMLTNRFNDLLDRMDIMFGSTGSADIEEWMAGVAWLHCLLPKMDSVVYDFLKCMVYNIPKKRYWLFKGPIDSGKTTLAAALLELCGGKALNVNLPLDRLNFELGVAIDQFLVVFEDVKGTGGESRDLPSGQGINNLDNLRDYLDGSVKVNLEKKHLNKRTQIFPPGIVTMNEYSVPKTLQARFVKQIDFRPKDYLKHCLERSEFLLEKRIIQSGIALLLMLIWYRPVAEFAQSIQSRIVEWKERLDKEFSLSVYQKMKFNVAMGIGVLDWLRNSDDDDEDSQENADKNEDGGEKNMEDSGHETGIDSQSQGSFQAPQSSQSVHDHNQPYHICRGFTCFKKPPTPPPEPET

The first assay has as its target Large T antigen (Simian virus 40, UniProt P03070).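 Also: Confirmatory-stage PubChem screen for compounds that inhibit SV40 T antigen.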
Test: not given
The assay is classed as functional, Betapolyomavirus macacae.
Conditions: not given
With `O=C(CSc1cccc2cccnc12)N/N=C/c1ccc(O)cc1`, the IC50 was 11.6 µM (active). Same read-out and setting: in the case of `COc1cc(/C=C/C(=O)OCC(=O)N2CC(=O)Nc3ccccc32)ccc1O` it was 12.6 µM (active); in that of `O=Cc1coc2c(ccc3ccccc32)c1=O`, 9.01 µM (active).

Consider `COc1ccc(/C=N/NC(=O)c2ccoc2C)cc1O`, for which the IC50 was 9.6 µM (active).

`O=C1c2ccccc2NC2(CCCCC2)N1c1ccc(O)cc1`: the IC50 was 12.5 µM (active). As to `O=C(O)[C@H]1CCCC[C@H]1C(=O)Nc1ccc(Nc2ccccc2)cc1`, the IC50 was 9.46 µM (active).

Tested on in a further assay: not listed separately
The assay can be described thus: viability of uninfected HEp-2 cells – cell-based, HTS, cytotoxicity control for RSV inhibitor project, dose response (AID 2410). The assay is classed as functional. To be noted: human respiratory syncytial virus.
Take `COc1ccc(/C=N/NC(=O)c2ccoc2C)cc1O`: the CC50 is 18.5 µM (active).

A further assay deals with T1, Replicative DNA helicase DnaB (Mycobacterium tuberculosis, UniProt P9WMR3).
T1 sequence (P9WMR3 whole entry): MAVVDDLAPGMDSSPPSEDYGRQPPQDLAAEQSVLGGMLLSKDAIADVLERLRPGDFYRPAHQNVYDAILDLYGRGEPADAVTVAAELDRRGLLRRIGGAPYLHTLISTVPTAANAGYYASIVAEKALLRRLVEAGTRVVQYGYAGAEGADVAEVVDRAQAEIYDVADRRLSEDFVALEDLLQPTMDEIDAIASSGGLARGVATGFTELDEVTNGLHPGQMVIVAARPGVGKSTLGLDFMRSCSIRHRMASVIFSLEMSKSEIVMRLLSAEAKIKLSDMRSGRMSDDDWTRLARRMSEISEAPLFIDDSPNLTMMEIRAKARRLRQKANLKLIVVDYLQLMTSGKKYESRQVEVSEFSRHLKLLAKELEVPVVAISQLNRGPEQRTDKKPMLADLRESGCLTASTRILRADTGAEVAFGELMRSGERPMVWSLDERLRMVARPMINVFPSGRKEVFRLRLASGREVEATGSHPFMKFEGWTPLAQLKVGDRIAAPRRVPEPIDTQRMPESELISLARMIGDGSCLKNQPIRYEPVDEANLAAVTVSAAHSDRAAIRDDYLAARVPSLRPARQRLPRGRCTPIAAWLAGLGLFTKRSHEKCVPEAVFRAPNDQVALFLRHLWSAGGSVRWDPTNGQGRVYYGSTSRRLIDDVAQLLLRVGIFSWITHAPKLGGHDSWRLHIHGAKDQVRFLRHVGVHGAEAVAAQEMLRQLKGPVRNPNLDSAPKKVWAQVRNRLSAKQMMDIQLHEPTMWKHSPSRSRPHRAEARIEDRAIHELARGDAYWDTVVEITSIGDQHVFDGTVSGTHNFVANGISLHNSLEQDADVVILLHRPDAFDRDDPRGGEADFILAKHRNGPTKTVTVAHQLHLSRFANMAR
The assay can be described thus: DnaB intein splicing inhibitors, dose response, biochemical, cell-free fluorescence (AID 449749). The assay is classed as functional.
Conditions: not given
On to `Cc1onc(-c2ccccc2)c1-c1nc2cc(Cl)ccc2c(=O)o1`, for which the AC50 is 1.53 µM (active). Still for that read-out and setting: in the case of `C=CSc1sc(Cl)c(N2CCOCC2)c1[N+](=O)[O-]` it was 11.1 µM (active); in that of `CCc1ccc(NC(=O)C(=O)N/N=C(\C)CC(=O)Nc2ccccn2)cc1`, > 380 µM (inactive).

Tested on in a further assay: not listed separately
Kind of assay: cells. In kind it is functional, cell-based.
Conditions: not given
Turning to `COc1ccc(/C=N/NC(=O)c2ccoc2C)cc1O`, the EC50 is on record as > 350 µM (not active).

The target of the next assay is FAD-linked sulfhydryl oxidase ALR (Homo sapiens, UniProt P55789). The assay can be described thus: ALR-catalysed DTT oxidation blockers – biochemical, H2O2 detection, luminescence, cherry-pick, dose response (AID 493248).
FAD-linked sulfhydryl oxidase ALR, sequence (P55789 whole entry): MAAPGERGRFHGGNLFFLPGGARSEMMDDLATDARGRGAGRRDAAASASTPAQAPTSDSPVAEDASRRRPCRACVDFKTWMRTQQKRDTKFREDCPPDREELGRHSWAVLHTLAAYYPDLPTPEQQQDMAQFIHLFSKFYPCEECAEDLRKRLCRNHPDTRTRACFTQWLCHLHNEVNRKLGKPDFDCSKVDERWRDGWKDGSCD
Conditions: not given
In the case of `COc1ccc(/C=N/NC(=O)c2ccoc2C)cc1O`, the AC50 is 1.2 µM (active).

Tested on in another assay: not listed separately
Kind of assay: cells. The assay is classed as functional, cell-based.
Conditions: not given
This is another data set of the same source.
As for `COc1ccc(/C=N/NC(=O)c2ccoc2C)cc1O`, the EC50 was 6.49 µM (active).

For the next assay, the target named is T2, Protein skinhead-1 (Caenorhabditis elegans, UniProt P34707).
T2 sequence (P34707 whole entry): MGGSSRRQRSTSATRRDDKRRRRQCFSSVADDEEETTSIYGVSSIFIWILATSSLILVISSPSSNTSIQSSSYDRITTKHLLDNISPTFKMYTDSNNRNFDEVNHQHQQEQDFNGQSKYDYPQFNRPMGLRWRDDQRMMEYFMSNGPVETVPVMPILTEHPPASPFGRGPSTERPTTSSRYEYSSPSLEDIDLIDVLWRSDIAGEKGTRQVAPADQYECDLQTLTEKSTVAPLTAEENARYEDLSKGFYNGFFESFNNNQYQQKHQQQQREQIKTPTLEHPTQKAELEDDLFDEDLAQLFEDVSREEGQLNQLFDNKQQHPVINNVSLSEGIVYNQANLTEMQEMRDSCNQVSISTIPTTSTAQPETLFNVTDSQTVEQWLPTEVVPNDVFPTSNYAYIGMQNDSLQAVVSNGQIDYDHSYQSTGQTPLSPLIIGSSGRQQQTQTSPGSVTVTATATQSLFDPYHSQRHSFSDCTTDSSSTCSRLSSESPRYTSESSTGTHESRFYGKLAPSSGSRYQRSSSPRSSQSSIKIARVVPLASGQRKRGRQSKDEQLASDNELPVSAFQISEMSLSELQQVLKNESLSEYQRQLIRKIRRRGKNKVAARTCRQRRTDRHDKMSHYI
Test: not given
In kind it is functional.
Conditions: not given
As to `COc1ccc2oc(C(F)(F)C(F)F)cc(=O)c2c1`, the IC50 is > 100 µM (inactive).

As to `COC(=O)C1=C(C)N=c2s/c(=C/c3cccs3)c(=O)n2C1c1ccc(F)cc1` (stereo unspecified), the IC50 was > 100 µM (inactive). The same measure, in the same setting: in the case of `ClCCN(CCCl)c1ccc(C=Cc2ccncn2)cc1` it was > 100 µM (inactive). In the case of `N#Cc1ccc(-c2nc3c4ccccc4ccn3c2Cc2ccccc2C(F)(F)F)cc1`, the IC50 was > 100 µM (inactive).

For the next assay, the target named is T3, Protein RecA (Mycobacterium tuberculosis, UniProt P9WHJ3).
T3 sequence (P9WHJ3 whole entry): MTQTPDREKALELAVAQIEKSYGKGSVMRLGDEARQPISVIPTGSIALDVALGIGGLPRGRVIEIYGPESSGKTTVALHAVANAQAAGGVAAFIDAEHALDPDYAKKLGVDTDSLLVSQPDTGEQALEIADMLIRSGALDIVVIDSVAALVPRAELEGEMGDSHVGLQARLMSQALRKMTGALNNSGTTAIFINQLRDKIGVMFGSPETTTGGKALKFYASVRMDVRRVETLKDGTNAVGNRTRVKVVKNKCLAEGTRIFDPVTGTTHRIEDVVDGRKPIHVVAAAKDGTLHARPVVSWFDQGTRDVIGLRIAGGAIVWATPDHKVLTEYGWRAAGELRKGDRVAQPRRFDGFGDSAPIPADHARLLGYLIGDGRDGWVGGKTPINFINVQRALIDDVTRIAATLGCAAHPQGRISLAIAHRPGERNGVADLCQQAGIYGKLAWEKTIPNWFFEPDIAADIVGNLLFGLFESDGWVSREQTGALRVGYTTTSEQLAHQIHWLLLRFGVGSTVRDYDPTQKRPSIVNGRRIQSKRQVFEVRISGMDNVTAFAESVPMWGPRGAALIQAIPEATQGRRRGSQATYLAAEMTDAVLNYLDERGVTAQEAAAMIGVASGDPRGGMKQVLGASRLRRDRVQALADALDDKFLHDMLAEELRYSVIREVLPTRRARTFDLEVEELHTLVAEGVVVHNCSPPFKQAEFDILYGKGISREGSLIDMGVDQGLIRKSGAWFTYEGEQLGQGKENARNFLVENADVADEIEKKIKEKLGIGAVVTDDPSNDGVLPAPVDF
Kind of assay: Fluorescence Cell-Free Homogeneous Dose Retest to Identify Inhibitors of RecA-Intein Splicing Activity. [Related pubchem assays (depositor defined):AID2097, AID2223, AID489010, AID492950]. In kind it is functional.
Conditions: not given
As for `Cc1onc(-c2ccccc2)c1-c1nc2cc(Cl)ccc2c(=O)o1`, the half-maximal effective concentration (EC50) is 158 µM (active).

For `C=CSc1sc(Cl)c(N2CCOCC2)c1[N+](=O)[O-]`, the EC50 was 54.6 µM (active).

In the case of `CCc1ccc(NC(=O)C(=O)N/N=C(\C)CC(=O)Nc2ccccn2)cc1`, the EC50 is > 380 µM (inactive).

A further assay relates to P388/ADR. The assay can be described thus: cells. In kind it is functional. To be noted: Mus musculus.
For the compound `Cc1cc2c(c3oc(C4(C)OC4C4OC4C)cc(=O)c13)C(=O)c1c(O)c(C3CC(C)(N(C)C)C(O)C(C)O3)cc(C3CC(N(C)C)C(O)C(C)O3)c1C2=O` (stereo unspecified), the GI50 was 0.0025 µM (active).

The values are drawn from ChEMBL document CHEMBL1201862, “PubChem BioAssay data set” (2004).
